From US20260098026A1, “M4 ACTIVATORS/MODULATORS AND USES THEREOF” (Cerevel Therapeutics, LLC, priority 2022, published 2026)

Assays:
[1] = biological target: T1, M3 muscarinic acetylcholine receptor (mAChR) (Homo sapiens, UniProt P20309); assay: FLIPR calcium assay (Fluo 8), M3-overexpressing CHO-K1 cells; assay type: cell-based
T1 construct: expressed in transfected cells; host or cells: CHO-K1
Protocol: Stimulation of a Gq-coupled G-protein coupled receptors (GPCRs), result in an efflux of calcium from the endoplasmic reticulum to the cytoplasm (Berridge, 1993), thus rendering this assay appropriate for the assessment of M1, M3 and M5 receptors. CHO-K1 cells overexpressing the M1, M3, or M5 muscarinic acetylcholine receptor (mAChR) were dispensed at 15,000 cells per well in 30 μl volume to 384-well plates and grown overnight at 37° C. in a 5% CO2 atmosphere. Fluo-8 Solution, 10 μl per well, was added to each well and incubated for 30 minutes at 37° C. in a 5% CO2 atmosphere. Compounds diluted in Hanks' balanced salt solution (HBSS) were transferred to the cell assay plate at 10 μl per well, and then read on a FLIPR instrument. EC50 and Emax figures were calculated from the resulting data for each receptor subtype.

M4 mAChR = biological target: T2, M4 mAChR (Homo sapiens, UniProt P08173); assay: cAMP TR-FRET assay with forskolin, M4-overexpressing CHO-K1 cells; assay type: cell-based
T2 construct: expressed in transfected cells; host or cells: CHO-K1
T2 sequence (P08173 1-479): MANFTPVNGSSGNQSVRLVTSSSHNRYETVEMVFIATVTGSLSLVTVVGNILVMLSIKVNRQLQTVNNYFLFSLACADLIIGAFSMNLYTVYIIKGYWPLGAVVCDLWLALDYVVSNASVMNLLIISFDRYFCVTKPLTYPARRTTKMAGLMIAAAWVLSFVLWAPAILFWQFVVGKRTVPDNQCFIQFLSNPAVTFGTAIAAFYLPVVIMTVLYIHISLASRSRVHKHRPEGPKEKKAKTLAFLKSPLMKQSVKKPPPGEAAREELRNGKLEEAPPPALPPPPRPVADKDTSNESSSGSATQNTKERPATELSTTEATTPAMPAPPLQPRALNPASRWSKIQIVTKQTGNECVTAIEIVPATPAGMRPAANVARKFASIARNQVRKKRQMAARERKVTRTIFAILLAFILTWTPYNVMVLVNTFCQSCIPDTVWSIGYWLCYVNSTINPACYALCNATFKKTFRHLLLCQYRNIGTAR
From the text: The M2 and M4 mACh receptors are Gi-coupled receptors which, upon activation, produce a decrease in cAMP. Assays were developed that measured the potency and efficacy of compounds at the M2 or M4 mAChR using M2- or M4-overexpressing CHO-K1 cell lines. Time-resolved fluorescence resonance energy transfer (TR-FRET) technology was used, where signal occurs as a result of transfer of energy if the donor molecule is in close proximity to an acceptor molecule when the molecules have bound to the molecule of interest. The cAMP detection is a competition binding assay, where cAMP produced by cells competes for binding with the labeled donor molecule to the anti-cAMP acceptor antibody. Due to the low basal levels of cAMP in the CHO-K1 cell line, forskolin was used to increase cAMP levels to enable assessment of agonist activity at the mAChR of interest.

T1 sequence (P20309 whole entry): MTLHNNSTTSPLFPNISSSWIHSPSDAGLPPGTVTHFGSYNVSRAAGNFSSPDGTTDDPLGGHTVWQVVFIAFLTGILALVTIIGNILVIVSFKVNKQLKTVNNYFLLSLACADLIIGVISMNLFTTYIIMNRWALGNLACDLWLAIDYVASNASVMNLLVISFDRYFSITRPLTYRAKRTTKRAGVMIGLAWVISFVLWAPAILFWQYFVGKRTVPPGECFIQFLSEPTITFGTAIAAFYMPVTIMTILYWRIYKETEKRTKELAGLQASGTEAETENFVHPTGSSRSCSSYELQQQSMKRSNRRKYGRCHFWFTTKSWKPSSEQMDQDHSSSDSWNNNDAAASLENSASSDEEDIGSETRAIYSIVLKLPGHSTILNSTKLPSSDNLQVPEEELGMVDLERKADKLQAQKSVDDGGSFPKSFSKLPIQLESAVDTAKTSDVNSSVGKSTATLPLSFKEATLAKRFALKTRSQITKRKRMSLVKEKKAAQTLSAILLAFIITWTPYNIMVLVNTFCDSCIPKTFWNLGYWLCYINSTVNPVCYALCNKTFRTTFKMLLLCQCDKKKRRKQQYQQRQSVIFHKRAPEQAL

Structure (SMILES) | EC50 ([1]; FLIPR calcium) [µM] | Emax (M4 mAChR; cAMP TR-FRET with forskolin) [%] | EC50 ([1]; FLIPR) [µM] | Emax (M4 mAChR; cAMP assay) [%]
CCOC(=O)N1CC2(CC[C@@H](N3CCN(c4cc(Cl)cnc4C4CCOCC4)CC3)C2)C1 (single isomer, unassigned) [Compound A15] | > 10 | 80 to 100 |  | 
CCOC(=O)N1CC2(CC(N3[C@@H]4CC[C@H]3CN(c3cc(F)cnc3-c3cnccn3)C4)CS2)C1 (single isomer, unassigned) [Compound A219] |  |  | > 10 | < 19
CCOC(=O)N1CC2(CCC(N3[C@@H]4CC[C@H]3CN(c3cc(F)cnc3-c3cnccn3)C4)C2)C1 (single isomer, unassigned) [Compound A223] |  |  | > 10 | 80 to 100
CCOC(=O)N1CC2(CC[C@@H](N3CCN(c4cc(F)cnc4-c4cnccn4)CC3)C2)C1 [Compound A6, (R)-ethyl 6-(4-(5-fluoro-2-(pyrazin-2-yl)pyridin-3-yl)piperazin-1-yl)-2-azaspiro[3.4]octane-2-carboxylate] | > 10 | 80 to 100 |  | 
CCOC(=O)N1CC2(CC[C@@H](N3CCN(c4cc(F)cnc4NC4CCOCC4)CC3)C2)C1 [Compound A9, ethyl (6R)-6-[4-[5-fluoro-2-(tetrahydropyran-4-ylamino)-3-pyridyl]piperazin-1-yl]-2-azaspiro[3.4]octane-2-carboxylate] | > 10 | 80 to 100 |  | 
CCOC(=O)N1CC2(CC[C@@H](N3CCN(c4cc(F)cnc4-c4ccc(C#N)nc4)CC3)C2)C1 [Compound A29] | > 10 | 80 to 100 |  | 
CCOC(=O)N1CC2(CC[C@@H](N3CCN(c4cc(F)cnc4-c4ccnc5[nH]ccc45)CC3)C2)C1 [Compound A30] | > 10 | 80 to 100 |  | 
CCOC(=O)N1CC2(CC[C@@H](N3CCN(c4cc(F)cnc4-c4cccc(O)c4)CC3)C2)C1 [Compound A32] | > 10 | 80 to 100 |  | 
CCOC(=O)N1CC2(CC[C@@H](N3CCN(c4cc(F)cnc4-c4ccc5nn(C)cc5c4)CC3)C2)C1 [Compound A33] | > 10 | 80 to 100 |  | 
CCOC(=O)N1CC2(CC[C@@H](N3CCN(c4cc(F)cnc4-c4ccc(CO)cc4)CC3)C2)C1 [Compound A34] | > 10 | 80 to 100 |  | 
CCOC(=O)N1CC2(CC[C@@H](N3CCN(c4cc(F)cnc4-c4cnn(CCOC)c4)CC3)C2)C1 [Compound A38] | > 10 | 80 to 100 |  | 
CCOC(=O)N1CC2(CC[C@@H](N3CCN(c4cc(F)cnc4-c4ccnc(C)n4)CC3)C2)C1 [Compound A254] |  |  | > 10 | 
CCOC(=O)N1CC2(CC[C@@H](N3CCN(c4cc(F)cnc4-c4cnn(C(C)C)n4)CC3)C2)C1 [Compound A257] |  |  | > 10 | 
CCOC(=O)N1CC2(CC[C@@H](N3CCC(c4cc(F)cnc4-c4ccc(F)cn4)CC3)C2)C1 [Compound A292] |  |  | > 10 | 

The next lines start with results.

EC50 ([1]; FLIPR calcium) [µM] | Emax (M4 mAChR; cAMP TR-FRET with forskolin) [%] | EC50 ([1]; FLIPR) [µM] | Structure (SMILES) | Emax (M4 mAChR; cAMP assay) [%]
> 10 | 80 to 100 |  | CCOC(=O)N1CC2(CC[C@@H](N3CCN(c4cc(F)cnc4-n4cc(C)cn4)CC3)C2)C1 [Compound A10, ethyl (6R)-6-[4-[5-fluoro-2-(4-methylpyrazol-1-yl)-3-pyridyl]piperazin-1-yl]-2-azaspiro[3.4]octane-2-carboxylate] | 
> 10 | 80 to 100 |  | CCOC(=O)N1CC2(CC[C@@H](N3CCN(c4cccnc4-c4cncc(C)c4)CC3)C2)C1 [Compound A25] | 
> 10 | 80 to 100 |  | CCOC(=O)N1CC2(CC[C@@H](N3CCN(c4cccnc4-c4cncc(F)c4)CC3)C2)C1 [Compound A26] | 
> 10 | 80 to 100 |  | CCOC(=O)N1CC2(CC[C@@H](N3CCN(c4cc(F)cnc4-c4cncc(C)c4)CC3)C2)C1 [Compound A31] | 
> 10 | 80 to 100 |  | CCOC(=O)N1CC2(CC[C@@H](N3CCN(c4cc(F)cnc4-c4cnccc4C)CC3)C2)C1 [Compound A35] | 
> 10 | 80 to 100 |  | CCOC(=O)N1CC2(CC[C@@H](N3CCN(c4cc(F)cnc4-c4cncc(OC)c4)CC3)C2)C1 [Compound A36] | 
> 10 | 80 to 100 |  | CCOC(=O)N1CC2(CC[C@@H](N3CCN(c4cc(F)cnc4-c4cccnc4)CC3)C2)C1 [Compound A37] | 
